{"source": "patent US20090264384A1", "about": "“INDOLE, BENZIMIDAZOLE, AND BENZOLACTAM BORONIC ACID COMPOUNDS, ANALOGS THEREOF AND METHODS OF USE THEREOF” (Nuada, Inc., priority 2004, published 2009)", "key": {"Kainate": {"tested_on": "Kainate", "test": "Kainate binding assay", "parameters": "species or system rat", "details": "1.0E−05 M"}, "β1(h)": {"target": "T1, β1(h) (Homo sapiens, UniProt P08588)", "T1 construct": "expressed in transfected cells; host or cells: HEK-293 cells", "test": "β1(h) binding assay", "details": "read-out: % Inhibition of Control Specific Binding"}, "AT2(h)": {"target": "T2, AT2(h) (Homo sapiens, UniProt P50052)", "T2 construct": "expressed in transfected cells; host or cells: Hela cells", "T2 sequence (P50052 whole entry)": "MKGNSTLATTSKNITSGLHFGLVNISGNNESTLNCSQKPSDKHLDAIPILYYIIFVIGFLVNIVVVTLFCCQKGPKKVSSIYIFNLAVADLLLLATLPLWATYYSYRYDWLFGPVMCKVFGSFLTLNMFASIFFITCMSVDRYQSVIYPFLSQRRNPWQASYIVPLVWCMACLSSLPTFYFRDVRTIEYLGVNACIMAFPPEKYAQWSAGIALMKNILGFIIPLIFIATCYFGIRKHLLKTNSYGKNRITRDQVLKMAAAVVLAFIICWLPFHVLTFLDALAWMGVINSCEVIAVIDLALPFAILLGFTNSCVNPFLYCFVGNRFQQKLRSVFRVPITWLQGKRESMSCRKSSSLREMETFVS", "test": "AT2(h) binding assay", "details": "read-out: % Inhibition of Control Specific Binding"}, "PCP": {"tested_on": "PCP", "test": "PCP binding assay", "parameters": "species or system rat", "details": "1.0E−05 M"}, "SK^+Ca channel": {"tested_on": "SK^+Ca channel", "test": "SK^+Ca channel binding assay", "parameters": "species or system rat", "details": "1.0E−05 M"}, "5-HT (non-selective)": {"tested_on": "5-HT (non-selective)", "test": "5-HT (non-selective) binding assay", "parameters": "species or system rat", "details": "1.0E−05 M"}, "CB1(h)": {"target": "T3, CB1(h) (Homo sapiens, UniProt P21554)", "T3 construct": "expressed in transfected cells; host or cells: HEK-293 cells", "T3 sequence (P21554 whole entry)": "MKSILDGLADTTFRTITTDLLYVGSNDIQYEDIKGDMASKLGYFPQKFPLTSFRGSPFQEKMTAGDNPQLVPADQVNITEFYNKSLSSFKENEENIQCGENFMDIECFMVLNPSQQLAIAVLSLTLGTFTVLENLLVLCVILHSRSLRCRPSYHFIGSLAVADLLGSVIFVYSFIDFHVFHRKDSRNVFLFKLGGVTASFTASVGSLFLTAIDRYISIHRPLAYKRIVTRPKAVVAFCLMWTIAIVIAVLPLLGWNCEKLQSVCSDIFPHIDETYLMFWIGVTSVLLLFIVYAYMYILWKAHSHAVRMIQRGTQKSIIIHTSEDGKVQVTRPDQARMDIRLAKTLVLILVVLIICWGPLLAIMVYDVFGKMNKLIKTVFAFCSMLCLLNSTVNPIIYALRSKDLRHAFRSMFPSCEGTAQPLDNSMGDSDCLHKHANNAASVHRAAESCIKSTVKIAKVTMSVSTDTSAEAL", "test": "CB1(h) binding assay", "details": "1.0E−05 M; read-out: % Inhibition of Control Specific Binding"}, "CCKA(h) (CCK1)": {"target": "T4, CCKA(h) (CCK1) (Homo sapiens, UniProt P32238)", "T4 construct": "expressed in transfected cells; host or cells: CHO cells", "test": "CCKA(h) (CCK1) binding assay", "details": "read-out: % Inhibition of Control Specific Binding"}, "Phosphodiesterase 5(h)": {"target": "T5, Phosphodiesterase 5(h) (Homo sapiens, UniProt O76074)", "T5 construct": "human platelets; from tissue; host or cells: human platelets", "test": "Phosphodiesterase 5(h) enzyme assay", "type": "biochemical", "details": "1.0E−05 M"}, "B2(h)": {"target": "T6, B2(h) (Homo sapiens, UniProt P30411)", "T6 construct": "expressed in transfected cells; host or cells: CHO cells", "T6 sequence (P30411 whole entry)": "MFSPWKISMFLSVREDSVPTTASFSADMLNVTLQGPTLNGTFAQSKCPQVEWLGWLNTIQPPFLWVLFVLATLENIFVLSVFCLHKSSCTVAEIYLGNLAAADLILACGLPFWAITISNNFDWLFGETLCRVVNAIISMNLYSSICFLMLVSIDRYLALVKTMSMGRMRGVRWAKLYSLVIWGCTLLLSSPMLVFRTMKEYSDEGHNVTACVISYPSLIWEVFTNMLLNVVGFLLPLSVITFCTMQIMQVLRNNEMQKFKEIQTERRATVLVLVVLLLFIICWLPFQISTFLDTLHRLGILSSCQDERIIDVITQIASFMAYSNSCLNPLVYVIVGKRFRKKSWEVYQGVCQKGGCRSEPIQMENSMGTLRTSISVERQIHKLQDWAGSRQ", "test": "B2(h) binding assay", "details": "1.0E−05 M; read-out: % Inhibition of Control Specific Binding"}, "H1(h)": {"target": "T7, H1(h) (Homo sapiens, UniProt P35367)", "T7 construct": "expressed in transfected cells; host or cells: HEK-293 cells", "T7 sequence (P35367 whole entry)": "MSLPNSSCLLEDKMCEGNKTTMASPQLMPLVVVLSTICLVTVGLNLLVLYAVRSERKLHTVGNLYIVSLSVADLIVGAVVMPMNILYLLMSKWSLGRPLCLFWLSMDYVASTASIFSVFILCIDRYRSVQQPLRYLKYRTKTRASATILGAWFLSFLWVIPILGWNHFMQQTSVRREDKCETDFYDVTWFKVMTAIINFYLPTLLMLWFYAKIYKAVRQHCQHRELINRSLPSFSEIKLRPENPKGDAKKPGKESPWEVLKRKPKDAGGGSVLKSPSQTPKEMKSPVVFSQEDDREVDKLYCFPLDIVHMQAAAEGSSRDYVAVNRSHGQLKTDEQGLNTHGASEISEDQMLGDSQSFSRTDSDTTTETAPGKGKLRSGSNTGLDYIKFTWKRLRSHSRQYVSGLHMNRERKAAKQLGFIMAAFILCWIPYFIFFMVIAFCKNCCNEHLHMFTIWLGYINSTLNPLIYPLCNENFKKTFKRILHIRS", "test": "biochemical", "details": "1.0E−05 M; read-out: % Inhibition of Control Specific Binding"}, "Phosphodiesterase 2(h)": {"target": "T8, Phosphodiesterase 2(h) (Homo sapiens, UniProt O00408)", "T8 construct": "differentiated U-; endogenous in cells; host or cells: differentiated U-937 cells", "test": "Phosphodiesterase 2(h) enzyme assay", "type": "biochemical", "details": "1.0E−05 M"}, "I2 (central)": {"tested_on": "I2 (central)", "test": "I2 (central) binding assay", "parameters": "species or system rat", "details": "1.0E−05 M"}, "NK2(h)": {"target": "T9, NK2(h) (Homo sapiens, UniProt P21452)", "T9 construct": "expressed in transfected cells; host or cells: CHO cells", "T9 sequence (P21452 whole entry)": "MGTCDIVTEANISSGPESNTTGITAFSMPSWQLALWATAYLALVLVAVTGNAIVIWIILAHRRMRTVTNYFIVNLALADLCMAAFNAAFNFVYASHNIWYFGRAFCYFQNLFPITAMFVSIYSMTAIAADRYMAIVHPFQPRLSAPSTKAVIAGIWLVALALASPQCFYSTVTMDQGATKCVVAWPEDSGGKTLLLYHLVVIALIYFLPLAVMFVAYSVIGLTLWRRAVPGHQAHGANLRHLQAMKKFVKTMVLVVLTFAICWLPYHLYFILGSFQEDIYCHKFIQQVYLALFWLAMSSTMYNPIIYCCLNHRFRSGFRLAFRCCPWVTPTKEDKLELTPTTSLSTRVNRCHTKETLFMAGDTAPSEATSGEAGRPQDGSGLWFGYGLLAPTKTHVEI", "test": "NK2(h) binding assay", "details": "1.0E−05 M; read-out: % Inhibition of Control Specific Binding"}, "M (non-selective)": {"tested_on": "M (non-selective)", "test": "M (non-selective) binding assay", "parameters": "species or system rat", "details": "1.0E−05 M"}, "Adenylyl cyclase (basal)": {"tested_on": "Adenylyl cyclase (basal)", "test": "Adenylyl cyclase (basal) enzyme assay", "type": "biochemical, rat", "details": "1.0E−05 M"}, "ORL1(h) (NOP)": {"target": "T10, ORL1(h) (NOP) (Homo sapiens, UniProt P41146)", "T10 construct": "expressed in transfected cells; host or cells: HEK-293 cells", "T10 sequence (P41146 whole entry)": "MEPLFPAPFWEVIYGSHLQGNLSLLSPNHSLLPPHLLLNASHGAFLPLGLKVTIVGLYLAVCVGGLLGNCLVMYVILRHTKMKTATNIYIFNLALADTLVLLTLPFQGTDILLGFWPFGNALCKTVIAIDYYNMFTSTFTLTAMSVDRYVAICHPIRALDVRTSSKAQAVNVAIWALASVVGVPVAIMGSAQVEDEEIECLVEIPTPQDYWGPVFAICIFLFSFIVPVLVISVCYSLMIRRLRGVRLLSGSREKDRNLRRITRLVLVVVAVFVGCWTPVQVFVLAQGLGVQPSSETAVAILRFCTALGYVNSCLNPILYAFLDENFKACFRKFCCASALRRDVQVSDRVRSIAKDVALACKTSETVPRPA", "test": "ORL1(h) (NOP) binding assay", "details": "1.0E−05 M; read-out: % Inhibition of Control Specific Binding"}, "NK3(h)": {"target": "T11, NK3(h) (Homo sapiens, UniProt P29371)", "T11 construct": "expressed in transfected cells; host or cells: CHO cells", "T11 sequence (P29371 whole entry)": "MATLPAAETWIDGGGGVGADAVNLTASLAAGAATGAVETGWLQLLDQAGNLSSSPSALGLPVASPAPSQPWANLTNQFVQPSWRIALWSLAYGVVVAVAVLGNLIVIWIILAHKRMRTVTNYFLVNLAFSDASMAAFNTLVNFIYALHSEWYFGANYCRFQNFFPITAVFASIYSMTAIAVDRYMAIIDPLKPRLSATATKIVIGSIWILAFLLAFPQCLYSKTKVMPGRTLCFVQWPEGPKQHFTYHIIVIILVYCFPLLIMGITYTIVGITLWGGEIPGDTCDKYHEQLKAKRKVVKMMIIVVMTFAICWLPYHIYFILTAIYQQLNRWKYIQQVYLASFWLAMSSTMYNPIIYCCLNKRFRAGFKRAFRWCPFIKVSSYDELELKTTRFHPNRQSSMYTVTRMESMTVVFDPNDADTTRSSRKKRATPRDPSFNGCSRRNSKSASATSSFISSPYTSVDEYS", "test": "NK3(h) binding assay", "details": "read-out: % Inhibition of Control Specific Binding"}, "BZD (central)": {"tested_on": "BZD (central)", "test": "BZD (central) binding assay", "parameters": "species or system rat", "details": "1.0E−05 M"}, "CYP3A4": {"target": "CYP3A4 (Homo sapiens, UniProt P08684)", "test": "ADME-Tox: In vitro Metabolism (Cytochrome P450, fluorogenic substrates BFC, CEC, MFC)", "parameters": "inhibition: dose or concentration left out as unconfirmed", "details": "human"}, "CYP2C19": {"target": "CYP2C19 (Homo sapiens, UniProt P33261)", "sequence (P33261 whole entry)": "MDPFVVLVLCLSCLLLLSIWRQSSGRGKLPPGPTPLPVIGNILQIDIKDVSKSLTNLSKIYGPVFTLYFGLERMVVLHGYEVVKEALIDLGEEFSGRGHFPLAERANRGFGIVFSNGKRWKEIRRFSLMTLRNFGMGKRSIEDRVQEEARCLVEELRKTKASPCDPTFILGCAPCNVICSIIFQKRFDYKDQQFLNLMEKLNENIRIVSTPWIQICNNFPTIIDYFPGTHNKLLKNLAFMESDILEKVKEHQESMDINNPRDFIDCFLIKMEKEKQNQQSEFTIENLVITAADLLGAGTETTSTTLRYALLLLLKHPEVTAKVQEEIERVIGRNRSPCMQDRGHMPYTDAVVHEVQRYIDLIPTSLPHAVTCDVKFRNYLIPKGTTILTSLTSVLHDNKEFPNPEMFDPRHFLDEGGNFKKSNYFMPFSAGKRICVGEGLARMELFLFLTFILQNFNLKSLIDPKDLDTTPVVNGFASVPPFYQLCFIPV", "test": "ADME-Tox: In vitro Metabolism (Cytochrome P450, fluorogenic substrates BFC, CEC, MFC)", "parameters": "inhibition: dose or concentration left out as unconfirmed", "details": "human"}, "CYP2C9": {"target": "CYP2C9 (Homo sapiens, UniProt P11712)", "sequence (P11712 whole entry)": "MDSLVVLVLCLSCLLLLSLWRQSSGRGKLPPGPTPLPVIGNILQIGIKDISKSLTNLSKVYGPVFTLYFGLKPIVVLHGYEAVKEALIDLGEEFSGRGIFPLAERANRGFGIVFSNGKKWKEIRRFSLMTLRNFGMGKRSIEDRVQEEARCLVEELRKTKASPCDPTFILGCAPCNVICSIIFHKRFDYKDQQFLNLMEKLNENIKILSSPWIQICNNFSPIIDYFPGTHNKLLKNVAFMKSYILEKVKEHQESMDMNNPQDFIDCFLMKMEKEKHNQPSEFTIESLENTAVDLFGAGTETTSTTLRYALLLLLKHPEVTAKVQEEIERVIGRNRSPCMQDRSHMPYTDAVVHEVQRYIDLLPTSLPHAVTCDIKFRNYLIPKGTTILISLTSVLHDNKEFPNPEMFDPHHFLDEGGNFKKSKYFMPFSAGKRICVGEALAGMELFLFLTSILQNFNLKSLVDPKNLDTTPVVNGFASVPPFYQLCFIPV", "test": "ADME-Tox: In vitro Metabolism (Cytochrome P450, fluorogenic substrates BFC, CEC, MFC)", "parameters": "inhibition: dose or concentration left out as unconfirmed", "details": "human"}, "CYP2D6": {"target": "CYP2D6 (Homo sapiens, UniProt P10635)", "sequence (P10635 whole entry)": "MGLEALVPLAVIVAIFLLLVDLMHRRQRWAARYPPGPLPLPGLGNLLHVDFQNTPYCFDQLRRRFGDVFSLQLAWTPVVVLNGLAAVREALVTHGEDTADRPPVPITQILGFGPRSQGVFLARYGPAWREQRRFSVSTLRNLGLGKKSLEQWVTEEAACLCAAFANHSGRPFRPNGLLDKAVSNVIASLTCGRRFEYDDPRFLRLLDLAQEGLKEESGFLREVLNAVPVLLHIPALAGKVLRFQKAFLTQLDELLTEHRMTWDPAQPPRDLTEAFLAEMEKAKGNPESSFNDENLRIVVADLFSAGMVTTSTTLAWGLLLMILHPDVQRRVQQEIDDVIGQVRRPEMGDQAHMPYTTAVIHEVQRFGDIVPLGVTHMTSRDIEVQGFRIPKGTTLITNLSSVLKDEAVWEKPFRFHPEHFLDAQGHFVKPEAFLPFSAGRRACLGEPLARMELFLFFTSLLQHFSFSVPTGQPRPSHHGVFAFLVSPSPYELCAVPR", "test": "ADME-Tox: In vitro Metabolism (Cytochrome P450, fluorogenic substrates BFC, CEC, MFC)", "parameters": "inhibition: dose or concentration left out as unconfirmed", "details": "human"}, "CYP1A2": {"target": "CYP1A2 (Homo sapiens, UniProt P05177)", "sequence (P05177 whole entry)": "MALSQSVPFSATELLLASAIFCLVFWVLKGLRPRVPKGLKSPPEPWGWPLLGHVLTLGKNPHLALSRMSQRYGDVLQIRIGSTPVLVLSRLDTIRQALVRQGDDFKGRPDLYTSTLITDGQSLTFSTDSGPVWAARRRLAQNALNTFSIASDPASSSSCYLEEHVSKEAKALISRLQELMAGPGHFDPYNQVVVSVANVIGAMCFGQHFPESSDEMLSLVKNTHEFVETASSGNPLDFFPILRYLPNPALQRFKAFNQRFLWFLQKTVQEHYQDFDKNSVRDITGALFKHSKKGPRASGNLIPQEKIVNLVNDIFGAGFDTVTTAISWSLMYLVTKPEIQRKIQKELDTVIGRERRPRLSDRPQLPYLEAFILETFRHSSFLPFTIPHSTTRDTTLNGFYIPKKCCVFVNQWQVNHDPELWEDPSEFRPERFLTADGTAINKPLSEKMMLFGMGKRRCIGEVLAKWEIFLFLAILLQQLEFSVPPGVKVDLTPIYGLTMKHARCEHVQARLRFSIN", "test": "ADME-Tox: In vitro Metabolism (Cytochrome P450, fluorogenic substrates BFC, CEC, MFC)", "parameters": "inhibition: dose or concentration left out as unconfirmed", "details": "human"}, "Phosphodiesterase 4(h)": {"tested_on": "Phosphodiesterase 4(h)", "test": "Phosphodiesterase 4(h) enzyme assay", "type": "biochemical, human", "details": "1.0E−05 M"}}, "data": [{"compound": "N#Cc1ccc2c(ccn2CCCCCB(O)O)c1", "note": "[Example 20, 5-(5-cyano-1H-indol-1-yl)pentylboronic acid]", "values": [{"measurement": "% Inhibition of Control Specific Binding", "setting": "Kainate", "result": "−6", "unit": "%"}, {"measurement": "inhibition at 10 µM", "setting": "β1(h)", "result": 7, "unit": "%"}, {"measurement": "inhibition at 10 µM", "setting": "AT2(h)", "result": 3, "unit": "%"}, {"measurement": "% Inhibition of Control Specific Binding", "setting": "PCP", "result": 5, "unit": "%"}, {"measurement": "% Inhibition of Control Specific Binding", "setting": "SK^+Ca channel", "result": "−15", "unit": "%"}, {"measurement": "% Inhibition of Control Specific Binding", "setting": "5-HT (non-selective)", "result": "−1", "unit": "%"}, {"measurement": "inhibition at 10 µM", "setting": "CB1(h)", "result": -2, "unit": "%"}, {"measurement": "inhibition at 10 µM", "setting": "CCKA(h) (CCK1)", "result": 7, "unit": "%"}, {"measurement": "% Inhibition of Control Values", "setting": "Phosphodiesterase 5(h)", "result": 94, "unit": "%"}, {"measurement": "inhibition at 10 µM", "setting": "B2(h)", "result": 18, "unit": "%"}, {"measurement": "inhibition at 10 µM", "setting": "H1(h)", "result": 6, "unit": "%"}, {"measurement": "% Inhibition of Control Values", "setting": "Phosphodiesterase 2(h)", "result": 95, "unit": "%"}, {"measurement": "% Inhibition of Control Specific Binding", "setting": "I2 (central)", "result": 1, "unit": "%"}, {"measurement": "inhibition at 10 µM", "setting": "NK2(h)", "result": -2, "unit": "%"}, {"measurement": "% Inhibition of Control Specific Binding", "setting": "M (non-selective)", "result": "−4", "unit": "%"}, {"measurement": "% Stimulation Relative to Control", "setting": "Adenylyl cyclase (basal)", "result": "−3", "unit": "%"}, {"measurement": "inhibition at 10 µM", "setting": "ORL1(h) (NOP)", "result": 0, "unit": "%"}, {"measurement": "inhibition at 10 µM", "setting": "NK3(h)", "result": 3, "unit": "%"}, {"measurement": "% Inhibition of Control Specific Binding", "setting": "BZD (central)", "result": 18, "unit": "%"}, {"measurement": "inhibition", "setting": "CYP3A4", "result": 97, "unit": "%"}, {"measurement": "inhibition", "setting": "CYP2C19", "result": 52, "unit": "%"}, {"measurement": "inhibition", "setting": "CYP2C9", "result": 73, "unit": "%"}, {"measurement": "inhibition", "setting": "CYP2D6", "result": 42, "unit": "%"}, {"measurement": "inhibition", "setting": "CYP1A2", "result": 40, "unit": "%"}, {"measurement": "% Inhibition of Control Values", "setting": "Phosphodiesterase 4(h)", "result": 91, "unit": "%"}]}]}
